# Active and inactive are the calls of the source.
# What was measured:
# Nonstructural protein 1 = Nonstructural protein 1 (Influenza A virus, UniProt Q194T2); format: functional, Influenza A virus (A/California/07/2009(H1N1))
# [1] = target: T1, Short transient receptor potential channel 4 (Mus musculus, UniProt Q9QUQ5); experiment: mouse TRPC4 channel inhibitors, dose response, cell-based, HEK293 TRPC4/mu-opioid, Fluo-4 calcium (AID 434942); format: functional;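 further: potency of inhibitors blocking the TRPC4 calcium response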
# T1 sequence (Q9QUQ5 whole entry): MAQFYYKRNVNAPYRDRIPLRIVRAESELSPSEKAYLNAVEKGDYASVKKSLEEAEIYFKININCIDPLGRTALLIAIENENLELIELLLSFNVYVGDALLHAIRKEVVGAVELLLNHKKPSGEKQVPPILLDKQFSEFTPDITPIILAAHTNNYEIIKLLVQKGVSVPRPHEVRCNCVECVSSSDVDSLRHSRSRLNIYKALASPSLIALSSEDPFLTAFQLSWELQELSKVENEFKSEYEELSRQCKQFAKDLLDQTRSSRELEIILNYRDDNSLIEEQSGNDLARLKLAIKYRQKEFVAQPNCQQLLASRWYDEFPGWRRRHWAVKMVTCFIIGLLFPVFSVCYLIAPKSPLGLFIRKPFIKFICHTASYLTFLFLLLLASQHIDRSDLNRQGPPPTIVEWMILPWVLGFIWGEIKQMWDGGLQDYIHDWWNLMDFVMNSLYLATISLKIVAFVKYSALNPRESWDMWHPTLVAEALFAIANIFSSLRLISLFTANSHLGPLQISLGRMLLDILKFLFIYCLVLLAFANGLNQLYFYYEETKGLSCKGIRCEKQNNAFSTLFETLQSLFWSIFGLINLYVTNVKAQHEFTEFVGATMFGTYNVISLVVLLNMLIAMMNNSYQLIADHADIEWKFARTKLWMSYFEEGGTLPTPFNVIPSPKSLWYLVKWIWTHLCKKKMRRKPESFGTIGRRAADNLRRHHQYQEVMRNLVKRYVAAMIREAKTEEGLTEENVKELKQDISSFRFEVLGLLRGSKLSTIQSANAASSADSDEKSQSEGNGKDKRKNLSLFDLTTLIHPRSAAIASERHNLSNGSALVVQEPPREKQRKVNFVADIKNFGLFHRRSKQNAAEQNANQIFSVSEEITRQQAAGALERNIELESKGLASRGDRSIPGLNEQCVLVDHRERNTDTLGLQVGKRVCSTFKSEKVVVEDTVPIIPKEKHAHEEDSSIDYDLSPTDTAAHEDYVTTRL
# Fatty acid synthase [2] = target: T2, Fatty acid synthase (Homo sapiens, UniProt P49327); experiment: FAS thioesterase domain inhibitors, dose response, biochemical, kinetic fluorescence intensity (AID 624326); format: functional;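 further: rate of fluorescence rise from hydrolysis of a fluorogenic O-methyl fluorescein ester substrate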
# T2 sequence (P49327 whole entry, the tested form may be a part): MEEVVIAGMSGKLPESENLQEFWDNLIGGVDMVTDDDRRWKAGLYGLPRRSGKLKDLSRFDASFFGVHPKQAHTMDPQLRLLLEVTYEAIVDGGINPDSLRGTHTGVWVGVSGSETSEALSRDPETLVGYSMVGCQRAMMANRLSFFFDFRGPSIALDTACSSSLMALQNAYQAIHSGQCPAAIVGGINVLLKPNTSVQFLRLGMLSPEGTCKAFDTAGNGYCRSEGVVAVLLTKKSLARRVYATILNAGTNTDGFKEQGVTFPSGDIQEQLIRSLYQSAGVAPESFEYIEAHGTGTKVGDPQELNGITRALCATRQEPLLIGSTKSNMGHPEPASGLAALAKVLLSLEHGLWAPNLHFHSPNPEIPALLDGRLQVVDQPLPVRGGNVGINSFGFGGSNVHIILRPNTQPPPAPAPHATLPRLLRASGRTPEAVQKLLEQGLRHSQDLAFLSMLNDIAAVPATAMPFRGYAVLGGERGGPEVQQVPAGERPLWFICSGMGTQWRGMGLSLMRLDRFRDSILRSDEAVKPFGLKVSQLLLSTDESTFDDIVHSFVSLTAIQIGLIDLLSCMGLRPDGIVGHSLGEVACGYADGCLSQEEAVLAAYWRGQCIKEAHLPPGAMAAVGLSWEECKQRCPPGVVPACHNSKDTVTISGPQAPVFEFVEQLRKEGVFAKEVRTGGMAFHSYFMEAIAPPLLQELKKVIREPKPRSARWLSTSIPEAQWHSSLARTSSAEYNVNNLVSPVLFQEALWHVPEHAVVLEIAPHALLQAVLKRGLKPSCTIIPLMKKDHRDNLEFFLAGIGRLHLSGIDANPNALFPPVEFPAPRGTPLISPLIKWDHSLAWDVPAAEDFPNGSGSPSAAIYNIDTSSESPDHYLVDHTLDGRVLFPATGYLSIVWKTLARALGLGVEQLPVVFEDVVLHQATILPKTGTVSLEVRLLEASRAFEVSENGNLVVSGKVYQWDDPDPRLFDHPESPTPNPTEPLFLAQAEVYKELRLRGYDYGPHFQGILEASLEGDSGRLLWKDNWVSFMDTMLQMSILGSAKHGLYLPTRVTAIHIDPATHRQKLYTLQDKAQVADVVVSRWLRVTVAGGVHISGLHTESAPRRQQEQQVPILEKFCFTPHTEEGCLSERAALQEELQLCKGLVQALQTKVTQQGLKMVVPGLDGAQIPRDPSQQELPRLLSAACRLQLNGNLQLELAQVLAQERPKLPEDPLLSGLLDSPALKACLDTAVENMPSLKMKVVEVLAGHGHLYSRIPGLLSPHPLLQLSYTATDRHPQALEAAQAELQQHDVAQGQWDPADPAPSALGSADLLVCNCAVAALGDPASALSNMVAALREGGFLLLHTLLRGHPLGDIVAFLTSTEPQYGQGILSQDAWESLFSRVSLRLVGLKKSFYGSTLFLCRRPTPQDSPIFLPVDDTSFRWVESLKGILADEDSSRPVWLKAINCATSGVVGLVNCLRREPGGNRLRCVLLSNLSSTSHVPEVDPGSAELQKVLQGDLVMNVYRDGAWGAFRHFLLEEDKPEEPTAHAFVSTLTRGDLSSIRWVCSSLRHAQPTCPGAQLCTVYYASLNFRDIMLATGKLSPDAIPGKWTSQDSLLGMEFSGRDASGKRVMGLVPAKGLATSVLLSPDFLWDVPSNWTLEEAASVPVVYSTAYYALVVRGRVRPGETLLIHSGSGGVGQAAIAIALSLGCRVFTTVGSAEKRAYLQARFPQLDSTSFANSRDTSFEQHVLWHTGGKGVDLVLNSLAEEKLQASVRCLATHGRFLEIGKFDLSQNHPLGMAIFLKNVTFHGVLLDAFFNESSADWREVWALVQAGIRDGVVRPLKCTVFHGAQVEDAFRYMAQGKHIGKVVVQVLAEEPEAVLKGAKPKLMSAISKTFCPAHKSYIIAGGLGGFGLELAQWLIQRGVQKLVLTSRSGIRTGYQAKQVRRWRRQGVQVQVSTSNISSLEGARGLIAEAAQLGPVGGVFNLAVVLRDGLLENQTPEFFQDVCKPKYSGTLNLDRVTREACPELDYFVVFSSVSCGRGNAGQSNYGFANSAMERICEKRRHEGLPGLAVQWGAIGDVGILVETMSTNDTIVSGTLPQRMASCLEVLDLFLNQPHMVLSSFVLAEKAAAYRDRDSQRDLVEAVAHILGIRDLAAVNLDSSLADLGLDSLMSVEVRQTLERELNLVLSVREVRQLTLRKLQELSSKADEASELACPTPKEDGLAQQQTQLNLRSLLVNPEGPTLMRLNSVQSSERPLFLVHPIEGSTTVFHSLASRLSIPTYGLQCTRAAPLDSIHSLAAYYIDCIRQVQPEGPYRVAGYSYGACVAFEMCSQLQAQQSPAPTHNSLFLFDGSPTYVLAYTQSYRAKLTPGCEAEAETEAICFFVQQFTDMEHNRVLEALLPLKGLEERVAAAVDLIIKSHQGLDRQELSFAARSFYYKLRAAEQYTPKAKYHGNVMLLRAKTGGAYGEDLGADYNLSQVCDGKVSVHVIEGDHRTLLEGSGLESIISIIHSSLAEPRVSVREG
# Fatty acid synthase [3] = target: T2, Fatty acid synthase; experiment: FAS thioesterase domain inhibitors, dose response, biochemical, endpoint fluorescence intensity, uHTS hits (AID 624327); format: functional;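 further: fluorescence from hydrolysis of an O-methyl fluorescein acyl ester substrate by the enzyme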
# Vero [4] = experiment: Vero cell cytotoxicity, cytotoxicity control for flavivirus capping enzyme inhibitors (AID 588742); format: functional; conditions: Chlorocebus sabaeus
# Genome polyprotein = Genome polyprotein (dengue virus type 2, UniProt P29990); experiment: Dengue-2 NS5 methyltransferase inhibitors, primary screen, biochemical, confirmation dose response (AID 588689); format: functional
# Genome polyprotein, sequence (P29990 2492-3391 limits assumed): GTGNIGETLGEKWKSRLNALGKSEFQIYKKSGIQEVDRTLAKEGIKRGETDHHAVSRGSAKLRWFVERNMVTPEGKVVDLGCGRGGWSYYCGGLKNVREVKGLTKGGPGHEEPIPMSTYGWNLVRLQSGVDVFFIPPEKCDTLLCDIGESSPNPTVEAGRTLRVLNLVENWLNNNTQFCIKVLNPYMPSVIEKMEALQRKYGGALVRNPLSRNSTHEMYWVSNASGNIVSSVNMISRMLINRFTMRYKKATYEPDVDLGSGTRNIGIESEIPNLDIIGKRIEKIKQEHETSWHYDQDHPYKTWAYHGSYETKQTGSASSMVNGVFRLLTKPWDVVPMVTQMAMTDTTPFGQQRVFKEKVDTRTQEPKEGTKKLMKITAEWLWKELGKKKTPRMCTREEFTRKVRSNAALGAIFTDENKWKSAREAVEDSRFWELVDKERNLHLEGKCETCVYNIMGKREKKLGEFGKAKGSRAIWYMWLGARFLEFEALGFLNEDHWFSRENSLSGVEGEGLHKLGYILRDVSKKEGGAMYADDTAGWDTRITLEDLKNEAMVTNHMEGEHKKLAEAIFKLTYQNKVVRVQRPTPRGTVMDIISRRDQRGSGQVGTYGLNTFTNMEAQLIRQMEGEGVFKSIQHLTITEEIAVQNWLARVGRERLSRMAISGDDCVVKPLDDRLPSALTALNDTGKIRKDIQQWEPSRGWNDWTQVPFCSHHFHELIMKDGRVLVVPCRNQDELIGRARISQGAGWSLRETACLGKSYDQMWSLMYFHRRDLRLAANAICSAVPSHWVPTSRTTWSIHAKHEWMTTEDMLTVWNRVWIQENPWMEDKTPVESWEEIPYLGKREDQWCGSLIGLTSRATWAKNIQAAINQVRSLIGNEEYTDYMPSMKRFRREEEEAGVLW
# [5] = target: T1, Short transient receptor potential channel 4; experiment: mouse TRPC4 channel activators, dose response, cell-based, HEK293 TRPC4/mu-opioid, Fluo-4 calcium (AID 434937); format: functional
# BJ [6] = experiment: cytotoxicity toward BJ-TERT-LT-ST fibroblasts, dose response, cell-based, RAS-independent, luminescence (AID 1935); format: functional; conditions: Homo sapiens;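 further: BJ fibroblasts immortalized with TERT plus LT and ST oncogenes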
# [7] = cytotoxicity in HEK-293T cells, dose response, cytotoxicity control for TCR NF-kB inhibitor project, luminescence, T-cell screen hits (AID 489026); format: functional, cell-based;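 further: cells exposed to compound about 14 hours before the viability readout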
# BJ [8] = experiment: cytotoxicity toward BJ-TERT fibroblasts, dose response, cell-based, RAS-independent, luminescence (AID 1933); format: functional; conditions: Homo sapiens
# BJ [9] = experiment: cells; format: functional, cell-based; conditions: Homo sapiens
# [10] = cytotoxicity toward DRD oncogenic fibroblasts, dose response, cell-based, non-viral oncogenic, luminescence (AID 1934); format: functional; conditions: Homo sapiens
# [11] = target: Heat shock protein HSP 90-alpha (Homo sapiens, UniProt P07900); format: functional, organism-based
# [12] = Luminescence Cell-Based Dose Retest to Confirm Inhibitors of Cancer Stem Cells. [Related pubchem assays (depositor defined):AID2717, AID2721]; format: functional, Homo sapiens; conditions: Homo sapiens
# [13] = target: T3, Microphthalmia-associated transcription factor (Homo sapiens, UniProt O75030); experiment: TRPM1 promoter luciferase signal decrease, dose response, MITF inhibitor project, cell-based, SK-MEL-5, cherry-picked, set 3 (AID 493073); format: functional
# T3 sequence (O75030 whole entry): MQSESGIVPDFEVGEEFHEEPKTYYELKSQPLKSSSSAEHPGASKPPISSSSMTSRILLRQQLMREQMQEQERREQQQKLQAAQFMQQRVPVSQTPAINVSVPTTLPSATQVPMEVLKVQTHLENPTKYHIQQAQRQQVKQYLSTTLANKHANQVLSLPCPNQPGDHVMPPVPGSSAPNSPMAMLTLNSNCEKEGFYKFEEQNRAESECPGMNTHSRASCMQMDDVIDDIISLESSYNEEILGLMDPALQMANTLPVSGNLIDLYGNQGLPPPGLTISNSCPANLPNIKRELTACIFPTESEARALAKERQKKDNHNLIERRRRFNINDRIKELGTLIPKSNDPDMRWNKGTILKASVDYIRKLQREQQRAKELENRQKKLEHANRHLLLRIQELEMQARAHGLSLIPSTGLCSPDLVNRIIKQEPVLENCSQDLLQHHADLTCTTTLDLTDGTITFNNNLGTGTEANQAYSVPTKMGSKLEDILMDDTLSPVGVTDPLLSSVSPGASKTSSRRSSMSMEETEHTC
# Vero [14] = experiment: cells; format: functional; conditions: Chlorocebus sabaeus
# cells = format: functional
# [15] = cytotoxicity toward NIH3T3 fibroblasts, dose response, counter-screen, cell-based, ATP luminescence, mouse fibroblasts (AID 2010); format: functional;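 further: cells exposed to compound for about 90 hours before reading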
# [16] = inhibitors of intracellular T. cruzi replication, confirmation, NIH3T3 host cells, beta-gal luminescence (AID 2044); format: functional, cell-based;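 further: intracellular parasites grown in NIH/3T3 mouse fibroblasts as host cells; luminescent beta-galactosidase reporter signal from transgenic T. cruzi replicating inside host cells; inhibitors lower the luminescence signal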
# [17] = target: T4, Heat shock factor protein 1 (Mus musculus, UniProt P38532); experiment: HSF1 potentiators in luciferase reporter cells, confirmation, cell-based, NIH3T3, luminescence, dose retest (AID 435004); format: functional;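 further: stress induced by proteasome inhibitor MG132 added 30 min after compound; luciferase reporter driven by HSF1 response element in NIH3T3 cells; actives raise luminescence as potentiators of the MG132 stress response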
# T4 sequence (P38532 whole entry): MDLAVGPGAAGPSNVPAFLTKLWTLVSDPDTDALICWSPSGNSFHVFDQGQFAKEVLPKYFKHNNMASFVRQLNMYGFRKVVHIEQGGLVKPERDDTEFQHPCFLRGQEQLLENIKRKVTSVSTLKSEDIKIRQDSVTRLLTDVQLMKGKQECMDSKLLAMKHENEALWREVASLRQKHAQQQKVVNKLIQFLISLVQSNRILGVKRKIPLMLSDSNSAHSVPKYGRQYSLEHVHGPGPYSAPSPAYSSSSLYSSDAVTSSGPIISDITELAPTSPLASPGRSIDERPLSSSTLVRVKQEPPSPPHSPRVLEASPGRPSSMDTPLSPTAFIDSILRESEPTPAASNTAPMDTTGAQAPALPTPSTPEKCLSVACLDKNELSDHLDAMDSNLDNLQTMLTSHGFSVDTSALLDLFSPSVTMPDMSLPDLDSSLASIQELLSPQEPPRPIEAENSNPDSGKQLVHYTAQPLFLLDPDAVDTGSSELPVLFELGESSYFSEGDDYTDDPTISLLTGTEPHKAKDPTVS
# [18] = growth suppression of PTEN-null colon cells, dose response, cell-based, HCT116 PTEN knockout (AID 1047); format: functional;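 further: HCT116 colon tumor cells with PTEN knocked out; cells exposed to compound for 60 hours before readout; potency for loss of cell viability measured by luminescence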
# [19] = growth suppression of beta-catenin-knockout colon cells, dose response, cell-based, HCT116, human colon tumor (AID 1045); format: functional;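 further: HCT116 colon tumor cells with beta catenin knocked out; cells exposed to compound for 60 hours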
# INS1 = experiment: beta cell apoptosis inhibitors, cytokine rescue, dose response, luminescence, retest (AID 449756); format: functional, cell-based; conditions: Rattus norvegicus;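 further: cell death triggered by IL-1 beta plus TNF-alpha plus IFN-gamma mixture; protective hits raise ATP signal compared with cytokine alone wells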
# Cytochrome P450 2C9 = Cytochrome P450 2C9 (Homo sapiens, UniProt P11712)
# Cytochrome P450 2C9, sequence (P11712 whole entry): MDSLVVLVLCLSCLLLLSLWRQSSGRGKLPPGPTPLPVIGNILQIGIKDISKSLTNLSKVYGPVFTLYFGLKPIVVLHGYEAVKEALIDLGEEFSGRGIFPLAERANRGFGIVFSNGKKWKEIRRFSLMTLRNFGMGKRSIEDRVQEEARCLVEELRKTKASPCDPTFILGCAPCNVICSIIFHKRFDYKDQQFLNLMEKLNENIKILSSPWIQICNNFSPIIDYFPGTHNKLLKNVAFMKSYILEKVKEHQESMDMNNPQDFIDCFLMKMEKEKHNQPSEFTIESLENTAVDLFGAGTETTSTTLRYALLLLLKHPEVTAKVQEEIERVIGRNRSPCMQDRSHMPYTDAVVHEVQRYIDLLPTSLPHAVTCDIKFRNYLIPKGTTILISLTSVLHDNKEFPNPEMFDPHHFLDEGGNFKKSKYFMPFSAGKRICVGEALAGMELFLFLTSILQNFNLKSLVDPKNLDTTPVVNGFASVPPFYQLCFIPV
# Cytochrome P450 2C19 = Cytochrome P450 2C19 (Homo sapiens, UniProt P33261); experiment: Cytochrome panel assay with activity outcomes. Panel member name: p450-cyp2c19 Compounds with AC50 equal or less than 10 uM are considered active; format: functional; conditions: read-out: AC50
# Cytochrome P450 2C19, sequence (P33261 whole entry): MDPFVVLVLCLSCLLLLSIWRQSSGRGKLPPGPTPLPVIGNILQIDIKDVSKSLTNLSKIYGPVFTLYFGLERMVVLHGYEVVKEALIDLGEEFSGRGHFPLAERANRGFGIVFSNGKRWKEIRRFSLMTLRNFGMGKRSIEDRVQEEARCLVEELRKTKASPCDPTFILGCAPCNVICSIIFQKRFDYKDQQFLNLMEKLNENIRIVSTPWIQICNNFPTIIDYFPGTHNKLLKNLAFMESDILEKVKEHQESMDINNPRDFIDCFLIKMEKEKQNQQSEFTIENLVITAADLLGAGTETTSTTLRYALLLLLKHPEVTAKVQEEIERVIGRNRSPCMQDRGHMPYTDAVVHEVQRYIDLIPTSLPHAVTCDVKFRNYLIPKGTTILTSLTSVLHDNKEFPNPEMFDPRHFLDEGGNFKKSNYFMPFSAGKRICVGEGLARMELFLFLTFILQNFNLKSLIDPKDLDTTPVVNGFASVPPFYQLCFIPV
# Nonstructural protein 1, sequence (Q194T2 whole entry): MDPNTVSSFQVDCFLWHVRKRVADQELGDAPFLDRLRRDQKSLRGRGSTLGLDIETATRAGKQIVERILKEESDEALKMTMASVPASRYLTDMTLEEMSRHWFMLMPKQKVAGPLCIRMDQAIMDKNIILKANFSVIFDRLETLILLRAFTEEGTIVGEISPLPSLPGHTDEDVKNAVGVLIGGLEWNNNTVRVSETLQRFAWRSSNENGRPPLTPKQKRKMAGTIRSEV
smiles,measurement,setting,value
O=C(CN1CC(=O)Oc2ccccc21)NCc1ccco1,IC50,Nonstructural protein 1,6.58 µM (active)
CCCc1nc2oc3c(NCCN(C)C)ncnc3c2c2c1CCCC2,EC50,[1],1.68 µM (active)
Cc1ccc(S(=O)(=O)N2[C@@H](c3ccc(C(C)(C)C)cc3)C(C(=O)O)=CC[C@H]2c2ccc(Cl)cc2)cc1,IC50,Fatty acid synthase [2],11.3 µM (active)
same,IC50,Fatty acid synthase [3],10.9 µM (active)
same,CC50,Vero [4],> 40 µM (active)
same,IC50,Genome polyprotein,39.6 µM (active)
CCOC(=O)C1(CC2CC2)CCN(Cc2ccc(O)c(Cl)c2)CC1,EC50,[5],0.841 µM (active)
same,EC50,[1],0.376 µM (active)
CCCCNC(=Nc1ccc(Cl)cc1)c1cccnc1,EC50,[1],7.5 µM (active)
OC1(c2ccccc2)C[N+](c2ccccc2)=C2SCCN21 (stereo unspecified),EC50,[5],1.88 µM (active)
same,EC50,[1],1.5 µM (active)
Cc1ccc(COC(=O)c2cc([N+](=O)[O-])ccc2N2CCOCC2)cc1,EC50,BJ [6],0.127 µM (inconclusive)
same,IC50,[7],> 80 µM (inactive)
same,EC50,BJ [8],0.223 µM (active)
same,EC50,BJ [9],11 µM (inconclusive)
same,EC50,[10],0.529 µM (inconclusive)
same,IC50,Fatty acid synthase [2],9.01 µM (active)
same,IC50,Fatty acid synthase [3],10.3 µM (active)
COc1ccc(C(C)(C)C)cc1NC(=O)Nc1ccc2c(c1)OCO2,AC50,[11],7.91 µM (active)
same,AC50,[12],6.11 µM (active)
COc1ccc(Br)cc1C(C[N+](=O)[O-])c1c(N)n(C)c(=O)n(C)c1=O (stereo unspecified),AC50,[12],3.46 µM (active)
same,AC50,[13],8.73 µM (active)
same,CC50,Vero [14],10.5 µM (active)
COc1ccc(N2CCN(C(=O)c3cccc(Cn4cc(Cl)cn4)c3)CC2)cc1,IC50,Nonstructural protein 1,> 100 µM (active)
CCOc1ccccc1NS(=O)(=O)c1ccc(-c2cnc(C3CC3)o2)cc1,IC50,[7],> 80 µM (inactive)
O=C(COC(=O)CCN1C(=O)/C(=C\C=C\c2ccccc2)SC1=S)Nc1cc(F)ccc1F,IC50,cells,26.4 µM (active)
same,AC50,[13],7.49 µM (active)
Cc1cc(C)cc(Nc2c([N+](=O)[O-])nn(-c3ccc(Cl)cc3)[n+]2[O-])c1,IC50,Nonstructural protein 1,> 100 µM (active)
same,EC50,[15],> 60 µM (not active)
same,EC50,[16],0.387 µM (active)
Cc1ccc(NS(=O)(=O)c2ccc(N3CCN(c4ccc(O)cc4)CC3)c([N+](=O)[O-])c2)c(C)c1,AC50,[11],4.4 µM (active)
Cc1ccc(-c2cc(C(=O)N3N=C(C(F)F)CC3(O)C(F)F)c3ccccc3n2)cc1C (stereo unspecified),EC50,[17],188 µM (active)
same,EC50,[18],38.6 µM (active)
same,EC50,[19],39.4 µM (active)
same,AC50,[11],6.22 µM (active)
same,EC50,[15],> 30 µM (not active)
same,AC50,[12],4.73 µM (active)
same,EC50,[16],2.45 µM (active)
CCN(C(=O)c1c(-c2ccccc2Cl)noc1C)C1CCCCC1,EC50,[1],9.44 µM (active)
CC(C(=O)N(C)C1CCS(=O)(=O)C1)N1C(=O)/C(=C/c2ccco2)SC1=S (stereo unspecified),CC50,Vero [4],35.4 µM (active)
Cc1cc(C(C)(C)C)cc(C)c1C[n+]1ccc2ccccc2c1,IC50,[7],> 80 µM (inactive)
same,AC50,INS1,1.45 µM (active)
CCOC(=O)CC1=NN(c2ccccc2)C(=O)/C1=C\c1ccc(N(C)C)cc1,IC50,Nonstructural protein 1,15.7 µM (active)
COc1ccc(SN=C2C(C)=CC(=O)C=C2C)cc1,AC50,[11],6.51 µM (active)
Cc1cccc(Nc2nc(N)c([N+](=O)[O-])c(N3CCCC(C)C3)n2)c1 (stereo unspecified),AC50,[11],4.6 µM (active)
O=C(Nc1ccc(OC(F)(F)F)cc1)c1n[nH]cc1[N+](=O)[O-],AC50,[13],0.601 µM (active)
O=C(Nc1ccccc1N1CCOCC1)c1ccc([N+](=O)[O-])s1,AC50,[11],7.97 µM (active)
same,AC50,[13],12.3 µM (active)
C[C@@]12C(=O)Nc3ccc(F)cc3C(=O)N1[C@H]1c3ccccc3OC[C@@H]1[C@@H]2c1ccccc1,AC50,[11],5.82 µM (active)
COc1ccc2c(c1)[C@H]1[C@H](CO2)[C@H](c2ccccc2)[C@]2(C)C(=O)Nc3ccc(Cl)cc3C(=O)N12,AC50,[11],3.14 µM (active)
S=c1sscc1-c1ccccc1,IC50,Nonstructural protein 1,32.7 µM (active)
O=c1c2c(-c3ccccc3)csc2ncn1/N=C/c1cccc([N+](=O)[O-])c1O,EC50,[5],9.44 µM (active)
same,EC50,[1],10.6 µM (active)
Cc1cccn2c(=O)c(/C=N/O)c(N3CCCC3)nc12,AC50,Cytochrome P450 2C9,inconclusive
same,AC50,Cytochrome P450 2C19,31.6 µM (inconclusive)
same,EC50,[1],1.88 µM (active)
